# Literature values as cited in patent US20090054331A1, “HIGH TEMPERATURE STABLE PEPTIDE FORMULATION” (priority 2007, published 2009).
# What was measured:
# [1] = in vivo
# human dental defects = settings: clinical trial
# human dental pulp cells = settings: in vitro
sequence,measurement,setting,value
TDLQERGDNDISPFSGDGQPFKD [AC-100],"effect on proliferation, differentiation and mineralization of human osteoblasts",human osteoblasts,"stimulate proliferation, differentiation, and mineralization"
same,bone formation activities,[1],has shown bone formation activities in vivo
same,formation of new dentin,human dental defects,formation of new dentin
same,proliferation of human dental pulp cells,human dental pulp cells,stimulation of the proliferation
